# Values quoted from earlier work in patent US20100022576A1 (priority 2006, published 2010).
# Tests used:
# [1] = in vivo
# human mast cells = conditions: in vitro
structure (smiles),measurement,setting,value
Clc1ccc2c(c1)CCc1cccnc1C2=C1CCNCC1 [desloratadine],Effect of food and grapefruit juice on bioavailability,[1],Neither food nor grapefruit juice has an effect
same,Release of histamine from human mast cells,human mast cells,inhibits release of histamine from human mast cells
